Assay results from paper PMC2873968, “Novel protein kinase D inhibitors cause potent arrest in prostate cancer cell growth and motility” (BMC Chemical Biology, 2010).

How the values were obtained:
PC3 cells = assay: Cell proliferation assay (cell counts, trypan blue); format: cell-based; settings: 10 μM, cell counts over six days
Source text: Cells were allowed to attach overnight.

AKT1 = AKT1 (Homo sapiens, UniProt P31749); assay: Kinase profiling, single-dose in vitro kinase assay (Caliper Life Sciences); settings: read-out: Average % Inhibition AKT1
CAMK4 = CAMK4 (Homo sapiens, UniProt Q16566); assay: as above; settings: read-out: Average % Inhibition CAMK4
CHK2 = CHK2 (Homo sapiens, UniProt O96017); assay: as above; settings: read-out: Average % Inhibition CHK2
SRC = SRC (Homo sapiens, UniProt P12931); assay: as above; settings: read-out: Average % Inhibition SRC
MARK1 = MARK1 (Homo sapiens, UniProt Q9P0L2); assay: as above; settings: read-out: Average % Inhibition MARK1
IRAK4 = IRAK4 (Homo sapiens, UniProt Q9NWZ3); assay: as above; settings: read-out: Average % Inhibition IRAK4
p70S6K = p70S6K (Homo sapiens, UniProt P23443); assay: as above; settings: read-out: Average % Inhibition p70S6K
PIM2 = PIM2 (Homo sapiens, UniProt Q9P1W9); assay: as above; settings: read-out: Average % Inhibition PIM2
PKD2 = biological target: T1, PKD2 (Homo sapiens, UniProt Q9BZL6); assay: as above; settings: read-out: Average % Inhibition PKD2
T1 sequence (Q9BZL6 1-878): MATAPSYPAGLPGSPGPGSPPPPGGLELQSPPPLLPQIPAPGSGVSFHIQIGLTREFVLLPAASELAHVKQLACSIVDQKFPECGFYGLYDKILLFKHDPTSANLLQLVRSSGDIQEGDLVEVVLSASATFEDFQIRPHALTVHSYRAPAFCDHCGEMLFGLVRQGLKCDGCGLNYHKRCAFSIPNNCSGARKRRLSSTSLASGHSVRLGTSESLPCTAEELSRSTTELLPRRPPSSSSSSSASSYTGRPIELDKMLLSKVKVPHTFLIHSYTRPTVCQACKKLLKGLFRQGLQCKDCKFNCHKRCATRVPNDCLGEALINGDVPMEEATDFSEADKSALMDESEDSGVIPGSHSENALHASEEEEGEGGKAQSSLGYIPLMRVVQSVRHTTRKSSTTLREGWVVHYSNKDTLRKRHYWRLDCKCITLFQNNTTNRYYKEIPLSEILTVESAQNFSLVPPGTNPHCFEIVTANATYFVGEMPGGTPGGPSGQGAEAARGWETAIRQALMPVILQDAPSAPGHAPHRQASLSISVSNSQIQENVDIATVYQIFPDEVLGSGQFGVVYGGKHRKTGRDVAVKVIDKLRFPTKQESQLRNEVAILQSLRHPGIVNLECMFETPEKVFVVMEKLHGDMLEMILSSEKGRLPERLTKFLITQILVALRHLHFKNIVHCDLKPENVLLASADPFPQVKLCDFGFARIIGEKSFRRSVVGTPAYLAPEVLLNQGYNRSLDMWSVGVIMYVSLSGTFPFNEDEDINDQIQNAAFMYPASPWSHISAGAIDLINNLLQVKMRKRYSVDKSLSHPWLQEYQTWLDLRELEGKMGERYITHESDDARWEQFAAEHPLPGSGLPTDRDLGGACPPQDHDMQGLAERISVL

PKCγ = PKCγ (Homo sapiens, UniProt P05129); assay: as above; settings: read-out: Average % Inhibition PKCγ
PKCδ [1] = biological target: T2, PKCδ (Homo sapiens, UniProt Q05655); set-up: method as in PMID 18829454; settings: previously reported; cited from earlier work
T2 construct: purchased Enzo Life Sciences

PLK1 = tested on: PLK1; set-up: method as in PMID 18829454; settings: previously reported; cited from earlier work
IGF1R = IGF1R (Homo sapiens, UniProt P08069); assay: Kinase profiling, single-dose in vitro kinase assay (Caliper Life Sciences); settings: read-out: Average % Inhibition IGF1R
MET = MET (Homo sapiens, UniProt P08581); assay: as above; settings: read-out: Average % Inhibition MET
AurA = AurA (Homo sapiens, UniProt O14965); assay: as above; settings: read-out: Average % Inhibition AurA
PKG1β = PKG1β (Homo sapiens, UniProt Q13976); assay: as above; settings: read-out: Average % Inhibition PKG1β
SGK1 = SGK1 (Homo sapiens, UniProt O00141); assay: as above; settings: read-out: Average % Inhibition SGK1
PKCδ [2] = biological target: T2, PKCδ; assay: In vitro radiometric PKC kinase assay; format: biochemical
Experimental: The PKC in vitro kinase assays were performed as described previously.
To determine whether the novel analogs retained this specificity, we tested the compounds against their ability to inhibit PKCα, -βI, -δ, and CAMKIIα in in vitro radiometric kinase activity assays.
Inhibition of PKCα (A), PKCβI (B), PKCδ (C), or CAMKIIα (D) by each of the 5 analogs was determined at 100 nM, 1 μM, and 10 μM concentrations. […] Data are the mean ± S.E.M. of three independent experiments. Statistical significance was determined using the unpaired t-test. ns, not statistically significant; *, p < 0.05; **, p < 0.01; ***, p < 0.001.

T2 sequence (Q05655 whole entry): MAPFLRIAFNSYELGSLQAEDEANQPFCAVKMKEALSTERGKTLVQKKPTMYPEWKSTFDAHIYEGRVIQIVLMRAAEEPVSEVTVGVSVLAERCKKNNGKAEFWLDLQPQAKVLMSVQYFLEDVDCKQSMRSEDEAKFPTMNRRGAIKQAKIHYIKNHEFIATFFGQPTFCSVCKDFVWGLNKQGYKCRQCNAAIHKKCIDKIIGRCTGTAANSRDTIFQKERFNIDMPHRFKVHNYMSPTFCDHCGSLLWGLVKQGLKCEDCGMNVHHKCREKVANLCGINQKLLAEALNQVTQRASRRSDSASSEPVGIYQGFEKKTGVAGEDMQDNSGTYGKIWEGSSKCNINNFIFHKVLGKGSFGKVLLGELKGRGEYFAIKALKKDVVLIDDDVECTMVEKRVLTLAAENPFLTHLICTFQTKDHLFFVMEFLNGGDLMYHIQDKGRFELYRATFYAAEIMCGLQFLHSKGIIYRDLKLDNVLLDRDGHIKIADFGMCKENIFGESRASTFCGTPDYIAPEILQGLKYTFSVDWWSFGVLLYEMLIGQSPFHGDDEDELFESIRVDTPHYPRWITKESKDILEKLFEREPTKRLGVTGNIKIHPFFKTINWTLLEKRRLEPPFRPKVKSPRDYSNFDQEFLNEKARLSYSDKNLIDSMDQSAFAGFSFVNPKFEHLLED
Chain of AKT1 (P31749 whole entry): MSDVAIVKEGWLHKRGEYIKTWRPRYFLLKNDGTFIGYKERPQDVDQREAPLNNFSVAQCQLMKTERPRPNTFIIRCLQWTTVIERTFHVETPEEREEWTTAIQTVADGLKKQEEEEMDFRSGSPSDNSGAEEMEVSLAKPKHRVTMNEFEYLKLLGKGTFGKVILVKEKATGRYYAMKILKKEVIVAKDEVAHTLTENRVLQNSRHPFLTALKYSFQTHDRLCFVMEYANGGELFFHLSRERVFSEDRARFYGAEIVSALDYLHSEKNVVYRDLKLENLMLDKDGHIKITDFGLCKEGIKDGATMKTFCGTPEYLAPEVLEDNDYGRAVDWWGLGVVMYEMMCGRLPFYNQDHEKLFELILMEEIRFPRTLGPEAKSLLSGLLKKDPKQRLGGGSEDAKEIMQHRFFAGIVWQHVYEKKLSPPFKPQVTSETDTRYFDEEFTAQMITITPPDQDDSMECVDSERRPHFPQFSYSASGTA
Chain of CAMK4 (Q16566 whole entry): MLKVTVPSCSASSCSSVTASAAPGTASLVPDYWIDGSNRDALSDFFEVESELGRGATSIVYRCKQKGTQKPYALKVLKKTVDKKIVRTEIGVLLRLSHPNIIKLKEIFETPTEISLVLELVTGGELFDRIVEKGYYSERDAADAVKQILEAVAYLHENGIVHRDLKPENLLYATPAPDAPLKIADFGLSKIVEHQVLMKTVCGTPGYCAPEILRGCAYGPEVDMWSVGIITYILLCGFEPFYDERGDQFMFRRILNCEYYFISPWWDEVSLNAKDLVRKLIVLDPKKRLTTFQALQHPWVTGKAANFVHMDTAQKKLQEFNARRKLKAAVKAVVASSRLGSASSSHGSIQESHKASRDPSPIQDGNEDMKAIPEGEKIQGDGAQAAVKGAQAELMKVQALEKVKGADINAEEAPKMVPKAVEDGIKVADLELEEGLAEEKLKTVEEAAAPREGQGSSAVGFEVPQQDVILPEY
Chain of SRC (P12931 whole entry): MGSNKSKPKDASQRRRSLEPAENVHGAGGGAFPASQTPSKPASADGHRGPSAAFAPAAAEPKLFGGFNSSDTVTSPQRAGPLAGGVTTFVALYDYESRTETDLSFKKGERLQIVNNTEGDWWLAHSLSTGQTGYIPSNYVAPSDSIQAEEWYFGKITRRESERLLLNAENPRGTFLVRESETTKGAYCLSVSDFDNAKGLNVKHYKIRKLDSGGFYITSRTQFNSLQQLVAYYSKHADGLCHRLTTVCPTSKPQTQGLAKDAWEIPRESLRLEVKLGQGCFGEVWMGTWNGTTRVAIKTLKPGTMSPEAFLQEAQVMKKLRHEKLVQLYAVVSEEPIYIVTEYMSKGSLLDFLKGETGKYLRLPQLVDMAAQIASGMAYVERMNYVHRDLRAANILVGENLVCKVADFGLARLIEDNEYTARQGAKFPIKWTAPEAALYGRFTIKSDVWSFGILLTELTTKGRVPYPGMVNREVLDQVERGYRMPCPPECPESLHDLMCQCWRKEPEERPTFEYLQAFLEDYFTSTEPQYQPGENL
Chain of PKG1β (Q13976 1-686 isoform Q13976-2): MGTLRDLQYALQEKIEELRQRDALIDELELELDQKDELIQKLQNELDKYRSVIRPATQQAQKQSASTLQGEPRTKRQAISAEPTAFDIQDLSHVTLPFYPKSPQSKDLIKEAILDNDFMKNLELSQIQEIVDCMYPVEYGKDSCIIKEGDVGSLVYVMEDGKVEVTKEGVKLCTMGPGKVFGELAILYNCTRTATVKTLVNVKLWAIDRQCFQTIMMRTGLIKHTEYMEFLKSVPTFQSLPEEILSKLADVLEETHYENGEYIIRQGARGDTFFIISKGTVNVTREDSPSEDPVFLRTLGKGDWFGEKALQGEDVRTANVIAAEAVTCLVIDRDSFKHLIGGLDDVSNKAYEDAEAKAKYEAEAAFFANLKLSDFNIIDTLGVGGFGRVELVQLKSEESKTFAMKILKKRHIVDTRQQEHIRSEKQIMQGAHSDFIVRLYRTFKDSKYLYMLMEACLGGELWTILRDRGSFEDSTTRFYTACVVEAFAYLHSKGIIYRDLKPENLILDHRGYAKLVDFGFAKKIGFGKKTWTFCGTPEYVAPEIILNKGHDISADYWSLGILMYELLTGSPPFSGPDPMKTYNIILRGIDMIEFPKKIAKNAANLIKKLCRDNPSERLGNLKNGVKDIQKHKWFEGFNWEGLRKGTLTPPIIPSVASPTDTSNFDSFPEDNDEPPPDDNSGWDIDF
Chain of SGK1 (O00141 whole entry): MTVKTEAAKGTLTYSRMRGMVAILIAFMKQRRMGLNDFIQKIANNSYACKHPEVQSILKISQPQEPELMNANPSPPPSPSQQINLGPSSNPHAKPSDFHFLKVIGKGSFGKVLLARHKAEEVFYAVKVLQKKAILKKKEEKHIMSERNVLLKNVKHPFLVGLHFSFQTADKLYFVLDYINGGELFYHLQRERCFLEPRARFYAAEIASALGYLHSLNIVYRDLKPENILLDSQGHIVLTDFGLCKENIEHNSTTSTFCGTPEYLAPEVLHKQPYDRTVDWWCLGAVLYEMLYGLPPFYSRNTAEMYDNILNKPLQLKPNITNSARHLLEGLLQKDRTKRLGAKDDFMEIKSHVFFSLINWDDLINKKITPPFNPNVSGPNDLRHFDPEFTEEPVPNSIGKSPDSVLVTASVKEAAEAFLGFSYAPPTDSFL
Chain of CHK2 (O96017 whole entry): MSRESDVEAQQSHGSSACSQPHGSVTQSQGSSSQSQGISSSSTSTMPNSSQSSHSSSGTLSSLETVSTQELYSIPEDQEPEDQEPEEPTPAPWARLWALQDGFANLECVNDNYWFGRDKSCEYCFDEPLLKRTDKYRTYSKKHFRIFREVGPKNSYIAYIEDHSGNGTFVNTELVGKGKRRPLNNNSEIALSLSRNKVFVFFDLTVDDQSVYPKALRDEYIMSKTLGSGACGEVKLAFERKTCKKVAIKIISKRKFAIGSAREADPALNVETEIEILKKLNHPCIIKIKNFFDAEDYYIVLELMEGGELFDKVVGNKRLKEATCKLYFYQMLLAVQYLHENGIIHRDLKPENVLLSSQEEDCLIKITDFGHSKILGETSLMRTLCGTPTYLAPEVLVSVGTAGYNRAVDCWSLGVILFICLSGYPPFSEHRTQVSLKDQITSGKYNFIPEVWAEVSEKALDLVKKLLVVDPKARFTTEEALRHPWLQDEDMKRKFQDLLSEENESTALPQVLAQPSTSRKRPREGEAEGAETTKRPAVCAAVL
Chain of AurA (O14965 whole entry): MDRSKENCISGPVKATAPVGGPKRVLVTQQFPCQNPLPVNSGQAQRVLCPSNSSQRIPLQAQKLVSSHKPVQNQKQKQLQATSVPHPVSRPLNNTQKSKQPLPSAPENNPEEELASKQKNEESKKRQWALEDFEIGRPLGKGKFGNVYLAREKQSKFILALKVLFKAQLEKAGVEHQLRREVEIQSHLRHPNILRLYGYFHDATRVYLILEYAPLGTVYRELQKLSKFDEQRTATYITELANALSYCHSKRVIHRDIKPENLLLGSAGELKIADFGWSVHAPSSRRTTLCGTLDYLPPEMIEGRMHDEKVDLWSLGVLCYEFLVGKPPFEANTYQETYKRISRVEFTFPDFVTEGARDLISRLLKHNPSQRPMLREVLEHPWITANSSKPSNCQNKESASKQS

In the case of O=C1NCCSc2c1sc1ccc(O)cc21 [kb-NB142-70], the “effect on cell proliferation” value (PC3 cells) is reported as “most potent among the compounds”.
In the case of O=C1NCCCc2c1oc1ccc(O)cc21 [CID755673, 7-Hydroxy-2,3,4,5-tetrahydro-[1]benzoxolo[2,3-c]azepin-1-one], the inhibition at 10 µM (AKT1) is reported as 3%, the inhibition at 10 µM (CAMK4) is reported as 17% and the inhibition at 10 µM (CHK2) is reported as 4%. The inhibition at 10 µM (SRC) was 7%, the inhibition at 10 µM (MARK1) was 12% and the inhibition at 10 µM (IRAK4) was 0%. It also gave an inhibition at 10 µM (p70S6K) of 44%, an inhibition at 10 µM (PIM2) of 6% and an inhibition at 10 µM (PKD2) of 95%. The inhibition at 10 µM (PKCγ) was 30%, the “inhibition of PKCδ” value (PKCδ [1]) was “did not inhibit” and the “inhibition of PLK1” value (PLK1) was “did not inhibit”. The inhibition at 10 µM (IGF1R) was -2%, the inhibition at 10 µM (MET) was 18% and the inhibition at 10 µM (AurA) was 7%. It also gave an inhibition at 10 µM (PKG1β) of 11% and an inhibition at 10 µM (SGK1) of 9%.
For O=C1NCCSc2c1sc1ccc(O)c(I)c21 [kb-NB165-31], the “inhibition of PKCδ (in words)” value (PKCδ [2]) was “significant inhibitory activity” and the inhibition at 10 µM (PKCδ [2]; 10 μM, read-out: inhibitory activity toward PKCδ) was ~50%.
